The numbers were not newly measured in patent US4310517A, “Tumor-resolving and histolytic medicaments and their use” (Troponwerke GmbH & Co., KG, priority 1976, dated 1982), which cites them from elsewhere.

Read-outs that look alike come from different tables or passages of the source.

The test system of this data set is tumour cells.

As to `O=P1(N(CCCl)CCCl)NCCCO1` (centres unmarked) [cyclophosphamide], the tumour cells destroyed (LD10 dosage) was 99.999% and the tumour cells destroyed (one eighth of the LD10 dose) is given as 90%.
